Experimental data reported in patent publication US10308602B2, “Organoselenium compounds, method for producing same, and pharmaceutical uses thereof in particular as antitumor agents” (TETRAHEDRON, priority 2014, dated 2019).

Tests used:
Format in all cases: cell-based
LS174T cells (colon) = test: Cytotoxicity, WST-1 cell viability test, LS174T; conditions: Homo sapiens, after 96 hours of treatment, read-out: Concentration decreasing by 50% the cell viability
Experimental: (§1) Eight cell lines originating from different types of cancer were used: PC3 and DU145 (prostate), HT-29 and LS-174T (colon), Hep G2 (liver), MCF-7 (breast), MIA PaCa-2 and PANC-1 (pancreas).
(§2) The cells are cultured in the specific culture medium described in Table II, at 37° C., 5% CO2, according to the operating procedures that are well known to the person skilled in the art.
(§3) After thawing and amplification of the cancer cells in the appropriate culture medium (described in 1.2.), 96-well plates are inoculated with these cells and incubated or not incubated (controls) in their respective culture medium, in the presence of the compounds to be tested at 10, 50, 100, 250 and 500 μM.
(§4) After 96 h of incubation, each 96-well plate is analyzed in order to measure the viability of the cells using a colorimetric test with WST-1.

DU145 cells (prostate) = test: Cytotoxicity, WST-1 cell viability test, DU145; conditions: Homo sapiens, DU-145, after 96 hours of treatment, read-out: Concentration decreasing by 50% the cell viability
Experimental: as §1, §2, §3, §4

HT-29 cells (colon) = test: Cytotoxicity, WST-1 cell viability test, HT-29; conditions: Homo sapiens, after 96 hours of treatment, read-out: Concentration decreasing by 50% the cell viability
Experimental: as §1, §2, §3, §4

PC3 cells (prostate) = test: Cytotoxicity, WST-1 cell viability test, PC3; conditions: Homo sapiens, PC-3, after 96 hours of treatment, read-out: Concentration decreasing by 50% the cell viability
Experimental: as §1, §2, §3, §4

Hep G2 cells (liver) = test: Cytotoxicity, WST-1 cell viability test, Hep G2; conditions: Homo sapiens, HepG2, after 96 hours of treatment, read-out: Concentration decreasing by 50% the cell viability
Experimental: as §1, §2, §3, §4

MCF-7 cells (breast) = test: Cytotoxicity, WST-1 cell viability test, MCF-7; conditions: Homo sapiens, MCF7, after 96 hours of treatment, read-out: Concentration decreasing by 50% the cell viability
Experimental: as §1, §2, §3, §4

PANC-1 cells (pancreas) = test: Cytotoxicity, WST-1 cell viability test, PANC-1; conditions: Homo sapiens, after 96 hours of treatment, read-out: Concentration decreasing by 50% the cell viability
Experimental: as §1, §2, §3, §4

[1] = system: MIA PaCa-2 cells (pancreas); test: Cytotoxicity, WST-1 cell viability test, MIA PaCa-2; conditions: Homo sapiens, after 96 hours of treatment, read-out: Concentration decreasing by 50% the cell viability
Experimental: as §1, §2, §3, §4

Structure (SMILES) | IC50 (LS174T cells (colon)) [µM] | IC50 (DU145 cells (prostate)) [µM] | IC50 (HT-29 cells (colon)) [µM] | IC50 (PC3 cells (prostate)) [µM] | IC50 (Hep G2 cells (liver)) [µM] | IC50 (MCF-7 cells (breast)) [µM] | IC50 (PANC-1 cells (pancreas)) [µM] | IC50 [1] [µM]
CCOC(=O)C(O)C[Se]C (stereo not shown) [Compound 4, ethyl ester of 2-hydroxy-3-(methylseleno)propanoic acid] | 335 | 481 |  |  |  |  |  | 
C[Se]CC(O)C(=O)O (stereo not shown) [Compound 10, 2-hydroxy-3-(methylseleno)propanoic acid] | 430 | 392 | 328 |  |  |  |  | 
CCCCCCCCCCCC(=O)OC(C[Se]C)C(=O)O (stereo not shown) [Compound 38, 2-(dodecanoyloxy)-3-(methylseleno)propanoic acid] | 113 | 169 | 166 | 198 | 263 | 215 | 253 | 308
